{"source": "patent US11786534B2", "about": "(TAIHO PHARMACEUTICAL CO., LTD., priority 2019, dated 2023)", "target": "T1, human EGFR (L858R/T790M/C797S) (Homo sapiens, UniProt P00533, C797S/L858R/T790M)", "T1 construct": "made in house; host or cells: Sf9 insect cells, baculovirus", "T1 sequence (P00533 with tags, fused parts or gaps T790M/C797S/L858R)": "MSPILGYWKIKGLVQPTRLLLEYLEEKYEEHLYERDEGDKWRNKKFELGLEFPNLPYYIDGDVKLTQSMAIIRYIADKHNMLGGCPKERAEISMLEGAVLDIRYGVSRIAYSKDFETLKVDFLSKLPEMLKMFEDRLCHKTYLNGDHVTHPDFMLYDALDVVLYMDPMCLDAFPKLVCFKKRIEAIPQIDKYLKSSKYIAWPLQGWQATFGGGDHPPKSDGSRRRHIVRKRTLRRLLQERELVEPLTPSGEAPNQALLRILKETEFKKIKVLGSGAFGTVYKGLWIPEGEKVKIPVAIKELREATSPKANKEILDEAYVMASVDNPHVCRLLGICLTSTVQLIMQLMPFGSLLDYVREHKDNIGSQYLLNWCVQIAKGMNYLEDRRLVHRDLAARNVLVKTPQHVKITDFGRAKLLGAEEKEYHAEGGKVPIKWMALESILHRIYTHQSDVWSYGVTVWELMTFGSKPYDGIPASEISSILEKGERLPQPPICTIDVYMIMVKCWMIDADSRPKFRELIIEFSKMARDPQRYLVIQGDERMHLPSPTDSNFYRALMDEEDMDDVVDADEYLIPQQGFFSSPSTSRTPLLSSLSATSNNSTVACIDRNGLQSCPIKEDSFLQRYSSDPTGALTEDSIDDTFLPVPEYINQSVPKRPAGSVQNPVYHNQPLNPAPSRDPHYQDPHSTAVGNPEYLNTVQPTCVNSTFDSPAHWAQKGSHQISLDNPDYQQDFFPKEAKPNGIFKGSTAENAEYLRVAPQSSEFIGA", "experiment": "Inhibitory activity against EGFR (L858R/T790M/C797S) kinase", "format": "biochemical", "in_short": "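GST-tagged cytoplasmic domain of human EGFR L858R/T790M/C797S, expressed in Sf9 insect cells via baculovirus and glutathione-purified. Kinase reaction run at 0.5 μM ATP final; IC50 (nM) determined per compound.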", "key": {"[1]": {"conditions": "Test Example 1, Table 3, ATP 0.5 μM"}}, "data": [{"smiles": "C#Cc1c(-c2cnc3ccccc3c2)c2c(N)ncnc2n1C12CCC(NC(=O)c3ccnn3C3CC3)(CC1)C2", "note": "[Example 20, N-(4-(4-Amino-6-ethynyl-5-(quinolin-3-yl)-7H-pyrrolo[2,3-d]pyrimidin-7-yl)bicyclo-[2.2.1]heptan-1-yl)-1-cyclopropyl-1H-pyrazole-5-carboxamide]", "values": [{"measurement": "IC50", "setting": "[1]", "value": 0.44, "unit": "nM"}]}, {"smiles": "C#Cc1c(-c2cnc3ccccc3c2)c2c(N)ncnc2n1C12CCC(NC(=O)c3cccnn3)(CC1)C2", "note": "[Example 49]", "values": [{"measurement": "IC50", "setting": "[1]", "value": 0.47, "unit": "nM"}]}, {"smiles": "C#Cc1c(-c2cnc3ccccc3c2)c2c(N)ncnc2n1C12CCC(NC(=O)[C@@H]3CN(C)CCO3)(CC1)C2", "note": "[Example 63, (S)-N-(4-(4-Amino-6-ethynyl-5-(quinolin-3-yl)-7H-pyrrolo[2,3-d]pyrimidin-7-yl) -bicyclo[2.2.1]heptan-1-yl)-4-methylmorpholine-2-carboxamide]", "values": [{"measurement": "IC50", "setting": "Test Example 3, Table 9; same procedures as 2) in Test Example 1", "value": "< 0.3", "unit": "nM"}]}, {"smiles": "C#Cc1c(-c2cnc3ccccc3c2)c2c(N)ncnc2n1C12CCC(NC(=O)c3cnns3)(CC1)C2", "note": "[Example 18, N-(4-(4-Amino-6-ethynyl-5-(quinolin-3-yl)-7H-pyrrolo[2,3-d]pyrimidin-7-yl)bicyclo-[2.2.1]heptan-1-yl)-1,2,3-thiadiazole-5-carboxamide]", "values": [{"measurement": "IC50", "setting": "[1]", "value": 0.42, "unit": "nM"}]}, {"smiles": "C#Cc1c(-c2cnc3ccccc3c2)c2c(N)ncnc2n1C12CCC(NC(C)=O)(CC1)C2", "note": "[Example 39, N-(4-(4-Amino-6-ethynyl-5-(quinolin-3-yl)-7H-pyrrolo[2,3-d]pyrimidin-7-yl)-bicyclo-[2.2.1]heptan-1-yl)acetamide]", "values": [{"measurement": "IC50", "setting": "[1]", "value": 0.36, "unit": "nM"}]}, {"smiles": "C#Cc1c(-c2cnc3ccccc3c2)c2c(N)ncnc2n1C12CCC(NC(=O)c3ccnnc3)(CC1)C2", "note": "[Example 3, N-(4-(4-Amino-6-ethynyl-5-(quinolin-3-yl)-7H-pyrrolo[2,3-d]pyrimidin-7-yl)bicyclo-[2.2.1]heptan-1-yl)pyridazine-4-carboxamide]", "values": [{"measurement": "IC50", "setting": "[1]", "value": "< 0.3", "unit": "nM"}]}, {"smiles": "C#Cc1c(-c2cnc3ccccc3c2)c2c(N)ncnc2n1C12CCC(NC(=O)c3ccno3)(CC1)C2", "note": "[Example 44]", "values": [{"measurement": "IC50", "setting": "[1]", "value": 0.32, "unit": "nM"}]}, {"smiles": "C#Cc1c(-c2cnc3ccccc3c2)c2c(N)ncnc2n1C12CCC(NC(=O)c3ncco3)(CC1)C2", "note": "[Example 46]", "values": [{"measurement": "IC50", "setting": "[1]", "value": 0.41, "unit": "nM"}]}, {"smiles": "C#Cc1c(-c2cnc3ccccc3c2)c2c(N)ncnc2n1C12CCC(NC(=O)c3cncc(F)c3)(CC1)C2", "note": "[Example 35, N-(4-(4-Amino-6-ethynyl-5-(quinolin-3-yl)-7H-pyrrolo[2,3-d]pyrimidin-7-yl)-bicyclo-[2.2.1]heptan-1-yl)-5-fluoronicotinamide]", "values": [{"measurement": "IC50", "setting": "[1]", "value": 0.5, "unit": "nM"}]}, {"smiles": "C#Cc1c(-c2cnc3ccccc3c2)c2c(N)ncnc2n1C12CCC(NC(=O)c3ccnn3C)(CC1)C2", "note": "[Example 24, N-(4-(4-Amino-6-ethynyl-5-(quinolin-3-yl)-7H-pyrrolo[2,3-d]pyrimidin-7-yl)bicyclo-[2.2.1]heptan-1-yl)-1-methyl-1H-pyrazole-5-carboxamide]", "values": [{"measurement": "IC50", "setting": "[1]", "value": "< 0.3", "unit": "nM"}]}, {"smiles": "C#Cc1c(-c2cnc3ccccc3c2)c2c(N)ncnc2n1C12CCC(NC(=O)c3ccco3)(CC1)C2", "note": "[Example 41]", "values": [{"measurement": "IC50", "setting": "[1]", "value": 0.39, "unit": "nM"}]}, {"smiles": "C#Cc1c(-c2cnc3ccccc3c2)c2c(N)ncnc2n1C12CCC(NC(=O)c3cnccn3)(CC1)C2", "note": "[Example 48]", "values": [{"measurement": "IC50", "setting": "[1]", "value": "< 0.3", "unit": "nM"}]}, {"smiles": "C#Cc1c(-c2cnc3ccccc3c2)c2c(N)ncnc2n1C12CCC(NC(=O)c3nccn3C)(CC1)C2", "note": "[Example 23, N-(4-(4-Amino-6-ethynyl-5-(quinolin-3-yl)-7H-pyrrolo[2,3-d]pyrimidin-7-yl)bicyclo-[2.2.1]heptan-1-yl)-1-methyl-1H-imidazole-2-carboxamide]", "values": [{"measurement": "IC50", "setting": "[1]", "value": 0.42, "unit": "nM"}]}, {"smiles": "C#Cc1c(-c2cnc3ccccc3c2)c2c(N)ncnc2n1C12CCC(NC(=O)c3ccccc3)(CC1)C2", "note": "[Example 1, N-(4-(4-Amino-6-ethynyl-5-(quinolin-3-yl)-7H-pyrrolo[2,3-d]pyrimidin-7-yl)bicyclo-[2.2.1]heptan-1-yl)benzamide]", "values": [{"measurement": "IC50", "setting": "[1]", "value": 0.46, "unit": "nM"}]}, {"smiles": "C#Cc1c(-c2cnc3ccccc3c2)c2c(N)ncnc2n1C12CCC(NC(=O)C(F)F)(CC1)C2", "note": "[Example 27, N-(4-(4-Amino-6-ethynyl-5-(quinolin-3-yl)-7H-pyrrolo[2,3-d]pyrimidin-7-yl)bicyclo-[2.2.1]heptan-1-yl)-2,2-difluoroacetamide]", "values": [{"measurement": "IC50", "setting": "[1]", "value": 0.47, "unit": "nM"}]}, {"smiles": "C#Cc1c(-c2cnc3ccccc3c2)c2c(N)ncnc2n1C12CCC(NC(=O)c3noc(C)n3)(CC1)C2", "note": "[Example 36, N-(4-(4-Amino-6-ethynyl-5-(quinolin-3-yl)-7H-pyrrolo[2,3-d]pyrimidin-7-yl)-bicyclo-[2.2.1]heptan-1-yl)-5-methyl-1,2,4-oxadiazole-3-carboxamide]", "values": [{"measurement": "IC50", "setting": "[1]", "value": 0.56, "unit": "nM"}]}, {"smiles": "C=CC(=O)N1CC[C@@H](n2cc(-c3cnc4ccccc4c3)c3c(N)ncnc32)C1", "note": "[Comparative Example A, (R)-1-(3(4-Amino-5-(quinolin-3-yl)-7H-pyrrolo[2,3-d]pyrimidin-7-yl)pyrrolidin-1-yl) -prop-2-en-1-one, reference compound]", "values": [{"measurement": "IC50", "setting": "[1]", "value": 102, "unit": "nM"}]}, {"smiles": "C#Cc1c(-c2cnc3ccccc3c2)c2c(N)ncnc2n1[C@@H]1CCN(C(=O)C=C)C1", "note": "[Comparative Example B, (R)-1-(3-(4-Amino-6-ethynyl-5-(quinolin-3-yl)-7H-pyrrolo[2,3-d]pyrimidin-7-yl) -pyrrolidin-1-yl)-prop-2-en-1-one, reference compound]", "values": [{"measurement": "IC50", "setting": "[1]", "value": 43, "unit": "nM"}]}, {"smiles": "C#Cc1c(-c2cnc3ccccc3c2)c2c(N)ncnc2n1C12CCC(NC(=O)c3nccs3)(CC1)C2", "note": "[Example 53]", "values": [{"measurement": "IC50", "setting": "[1]", "value": 0.69, "unit": "nM"}]}, {"smiles": "C#Cc1c(-c2cnc3ccccc3c2)c2c(N)ncnc2n1C12CCC(NC(=O)c3ccc4ncnn4c3)(CC1)C2", "note": "[Example 16, N-(4-(4-Amino-6-ethynyl-5-(quinolin-3-yl)-7H-pyrrolo[2,3-d]pyrimidin-7-yl)bicyclo-[2.2.1]heptan-1-yl)-[1.2.4]triazolo[1,5-a]pyrimidin-6-carboxamide]", "values": [{"measurement": "IC50", "setting": "[1]", "value": 0.36, "unit": "nM"}]}, {"smiles": "C#Cc1c(-c2cnc3ccccc3c2)c2c(N)ncnc2n1C12CCC(NC(=O)c3cnc(C)cn3)(CC1)C2", "note": "[Example 37, N-(4-(4-Amino-6-ethynyl-5-(quinolin-3-yl)-7H-pyrrolo[2,3-d]pyrimidin-7-yl)-bicyclo-[2.2.1]heptan-1-yl)-5-methylpyrazine-2-carboxamide]", "values": [{"measurement": "IC50", "setting": "[1]", "value": 0.52, "unit": "nM"}]}, {"smiles": "C#Cc1c(-c2cnc3ccccc3c2)c2c(N)ncnc2n1C12CCC(NC(=O)c3cncnc3)(CC1)C2", "note": "[Example 2, N-(4-(4-Amino-6-ethynyl-5-(quinolin-3-yl)-7H-pyrrolo[2,3-d]pyrimidin-7-yl)bicyclo-[2.2.1]heptan-1-yl)pyrimidine-5-carboxamide]", "values": [{"measurement": "IC50", "setting": "[1]", "value": "< 0.3", "unit": "nM"}]}]}
